Measured values as given in US11866405B2, “Substituted indazoles as IRAK4 inhibitors” (AstraZeneca AB, priority 2020, dated 2024).
Read-outs that look alike come from different tables or passages of the source.

Key:
Format in all cases: cell-based
[1] = molecular target: IRAK4 auto-phosphorylation (Homo sapiens (Human), UniProt Q9NWZ3); test: IRAK4 phosphorylation cell assay in IL-1β-stimulated Karpas-299 cells; conditions: IL-1β 22.7 ng/mL, pIRAK4 (Thr345/Ser346), geometric mean of at least 2 experiments
Method in brief: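 Karpas-299 cells were preincubated 1 h at 37 °C with compound (10-point half-log series, top 30 μM), then stimulated 10 min with 22.7 ng/mL IL-1β. Cells were fixed and stained for pIRAK4 (Thr345/Ser346), and per-cell fluorescence was quantified by high-content imaging. IC50 values are geometric means of at least 2 experiments.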

[2] = tested on: human PBMCs stimulated with IL-1β; test: IL-1β-induced cytokine release in human PBMCs; conditions: PBMC, 1 ng/mL IL-1β, 20 h
From the text: (§1) In Vitro Effect of IRAK4 Inhibitors on LPS- and IL-1β-Induced Cytokine Release in Human PBMCs
(§2) To evaluate the effect and potency of IRAK4 inhibitors on blocking disease-relevant pathways in human primary immune cells, we stimulated human PBMCs (peripheral blood mononuclear cells) with LPS (TLR4 agonist) or IL-1β (IL-1R ligand) and measured the release of the proinflammatory cytokines IL-6 and TNF-α. Briefly, PBMCs were isolated from human blood, donated from healthy individuals, using LymphoPrep density gradient and plated at a cell density of 200 000 cells/well (for LPS assay) or 300 000 cells/well (for IL-1β assay) in 96-well culture plates. Cells were incubated for 1 h with serial dilutions of IRAK4 inhibitor or vehicle (DMSO) prior to stimulation of cells with 0.11 ng/mL LPS (derived from E. coli) or 1 ng/mL recombinant human IL-1β. After 4 h of LPS stimulation or 20 h of […] stimulation, the supernatant was collected and the levels of the proinflammatory cytokines TNF-α, IL-8 and IL-6 were measured by Mesoscale Discovery (MSD) multiplex assay. Dose-response curves were plotted and IC50 values were calculated with 4-parameter curve fit using GraphPad Prism 8 (see Table 3).

[3] = tested on: human PBMCs stimulated with LPS; test: LPS-induced cytokine release in human PBMCs; conditions: PBMC, 0.11 ng/mL LPS, 4 h
From the text: as §1, §2

IRAK4 auto-phosphorylation, sequence (Q9NWZ3 whole entry): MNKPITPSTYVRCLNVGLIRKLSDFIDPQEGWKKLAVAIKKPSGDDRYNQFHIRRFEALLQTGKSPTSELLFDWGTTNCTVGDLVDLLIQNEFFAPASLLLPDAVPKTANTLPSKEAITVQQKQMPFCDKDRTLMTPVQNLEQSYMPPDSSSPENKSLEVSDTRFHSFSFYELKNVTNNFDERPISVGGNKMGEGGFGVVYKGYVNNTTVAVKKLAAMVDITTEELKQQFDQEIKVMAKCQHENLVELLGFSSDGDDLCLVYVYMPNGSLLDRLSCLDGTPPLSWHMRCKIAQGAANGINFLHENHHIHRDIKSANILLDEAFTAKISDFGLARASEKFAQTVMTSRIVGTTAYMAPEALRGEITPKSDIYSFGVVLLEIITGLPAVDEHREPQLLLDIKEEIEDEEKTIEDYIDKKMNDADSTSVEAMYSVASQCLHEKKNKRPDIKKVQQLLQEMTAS

IC50 [1]: 36 nM
Compound: COc1cc2nn([C@@H]3CC[C@@H](O)C[C@H]3C)cc2cc1C(=O)Nc1cnc2cccnn12 [Example 89, 2-((1R,2R,4R)-4-hydroxy-2-methylcyclohexyl)-N-(imidazo[1,2-b]pyridazin-3-yl)-6-methoxy-2H-indazole-5-carboxamide]
IC50 ([2]; read-out: IC50, IL-6 read-out, IL-1β stimulation): 22 nM
IC50 ([2]; read-out: IC50, IL-8 read-out, IL-1β stimulation): 30 nM
IC50 ([3]; read-out: IC50, IL-6 read-out, LPS stimulation): 32 nM
IC50 ([3]; read-out: IC50, TNF-α read-out, LPS stimulation): 39 nM
